Active and inactive are the calls of the source.
How the values were obtained:
[1] = target: T1, Long-chain-fatty-acid--AMP ligase FadD28 (Mycobacterium tuberculosis, UniProt P9WQ59); experiment: Fluorescence polarization aasay to screen for inhibitors that compete for the binding of FadD28 to a bisubstrate Measured in Biochemical System Using Plate Reader - 2147-01_Inhibitor_Dose_CherryPick_Activity.; assay type: functional, Mycobacterium tuberculosis H37Rv
T1 sequence (P9WQ59 whole entry): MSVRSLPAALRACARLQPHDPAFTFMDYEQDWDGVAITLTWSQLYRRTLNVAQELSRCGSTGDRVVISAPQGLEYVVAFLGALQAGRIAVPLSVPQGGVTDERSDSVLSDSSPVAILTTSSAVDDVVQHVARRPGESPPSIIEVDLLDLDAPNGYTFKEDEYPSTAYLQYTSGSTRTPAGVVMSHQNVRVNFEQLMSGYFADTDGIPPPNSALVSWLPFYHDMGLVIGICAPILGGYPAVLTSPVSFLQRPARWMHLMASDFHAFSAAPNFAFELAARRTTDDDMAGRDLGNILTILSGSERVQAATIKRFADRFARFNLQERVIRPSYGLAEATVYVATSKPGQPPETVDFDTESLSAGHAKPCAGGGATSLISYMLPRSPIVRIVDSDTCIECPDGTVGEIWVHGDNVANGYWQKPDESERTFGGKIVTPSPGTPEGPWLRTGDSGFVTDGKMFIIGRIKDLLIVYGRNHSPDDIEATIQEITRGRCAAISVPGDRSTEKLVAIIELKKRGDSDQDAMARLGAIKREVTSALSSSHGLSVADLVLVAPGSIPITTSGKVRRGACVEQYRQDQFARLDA

[2] = target: T2, Endoribonuclease toxin MazF (Escherichia coli K-12, UniProt P0AE70); experiment: MazF toxin RNase activators, dose response, biochemical, fluorescence, single-stranded RNA substrate, uHTS hits (AID 588481); assay type: functional
T2 sequence (P0AE70 whole entry): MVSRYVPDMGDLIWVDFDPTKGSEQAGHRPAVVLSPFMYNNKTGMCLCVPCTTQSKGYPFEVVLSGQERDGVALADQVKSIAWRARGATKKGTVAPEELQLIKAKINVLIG

[3] = target: T2, Endoribonuclease toxin MazF; experiment: fluorescent RNA oligo signal without MazF, dose response, counter-screen for MazEF activator project, biochemical, fluorescence, single-stranded RNase substrate (AID 588502); assay type: functional
[4] = inhibitors of intracellular T. cruzi replication, confirmation, NIH3T3 host cells, beta-gal luminescence (AID 2044); assay type: functional, cell-based;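 note: intracellular parasites grown in NIH/3T3 mouse fibroblasts as host cells; luminescent beta-galactosidase reporter signal from transgenic T. cruzi replicating inside host cells; inhibitors lower the luminescence signal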
[5] = growth suppression of PTEN-null colon cells, dose response, cell-based, HCT116 PTEN knockout (AID 1047); assay type: functional;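 note: HCT116 colon tumor cells with PTEN knocked out; cells exposed to compound for 60 hours before readout; potency for loss of cell viability measured by luminescence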
[6] = cytotoxicity toward NIH3T3 fibroblasts, dose response, counter-screen, cell-based, ATP luminescence, mouse fibroblasts (AID 2010); assay type: functional;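 note: cells exposed to compound for about 90 hours before reading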
[7] = growth suppression of beta-catenin-knockout colon cells, dose response, cell-based, HCT116, human colon tumor (AID 1045); assay type: functional;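 note: HCT116 colon tumor cells with beta catenin knocked out; cells exposed to compound for 60 hours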
Cytochrome P450 2C19 = Cytochrome P450 2C19 (Homo sapiens, UniProt P33261); experiment: Cytochrome panel assay with activity outcomes. Panel member name: p450-cyp2c19 Compounds with AC50 equal or less than 10 uM are considered active; assay type: functional; conditions: read-out: AC50
INS1 = experiment: beta cell apoptosis inhibitors, cytokine rescue, dose response, luminescence, retest (AID 449756); assay type: functional, cell-based; conditions: Rattus norvegicus;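 note: cell death triggered by IL-1 beta plus TNF-alpha plus IFN-gamma mixture; protective hits raise ATP signal compared with cytokine alone wells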
[8] = HepG2 cell cytotoxicity, dose response, cytotoxicity control, ATP luminescence, cherry-pick, activator set 2 (AID 1053143); assay type: functional, cell-based
[9] = HEp-2 cell cytotoxicity, dose response, cytotoxicity control for RSV inhibitor project, HTS (AID 2410); assay type: functional; conditions: human respiratory syncytial virus
[10] = target: Intestinal-type alkaline phosphatase (Mus musculus, UniProt P24822); experiment: PubChem AID 488785; assay type: functional
[11] = target: T3, Alkaline phosphatase, tissue-nonspecific isozyme (Homo sapiens, UniProt P05186); experiment: TNAP enzyme inhibition by screening hits, dose response, selectivity assay for mouse IAP inhibitor project, biochemical, human TNAP, uHTS hits (AID 488906); assay type: functional
T3 sequence (P05186 whole entry): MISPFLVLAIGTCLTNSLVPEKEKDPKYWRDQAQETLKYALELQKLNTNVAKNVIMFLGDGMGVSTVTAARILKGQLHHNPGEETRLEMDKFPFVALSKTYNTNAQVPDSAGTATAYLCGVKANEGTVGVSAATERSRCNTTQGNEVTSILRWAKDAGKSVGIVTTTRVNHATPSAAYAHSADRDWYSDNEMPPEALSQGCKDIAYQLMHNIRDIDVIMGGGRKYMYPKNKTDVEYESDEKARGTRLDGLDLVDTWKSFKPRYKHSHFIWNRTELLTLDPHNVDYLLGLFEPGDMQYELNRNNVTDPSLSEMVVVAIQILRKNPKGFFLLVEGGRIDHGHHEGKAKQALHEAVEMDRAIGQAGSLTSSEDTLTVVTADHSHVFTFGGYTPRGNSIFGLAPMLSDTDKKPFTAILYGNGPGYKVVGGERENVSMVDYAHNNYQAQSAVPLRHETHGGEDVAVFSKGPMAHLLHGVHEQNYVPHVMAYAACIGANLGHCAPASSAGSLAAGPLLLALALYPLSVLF

[12] = target: Intestinal-type alkaline phosphatase (Homo sapiens, UniProt P09923); experiment: inhibition of human intestinal alkaline phosphatase – biochemical, dose response (AID 488876); assay type: functional
cells [13] = experiment: cells
[14] = LGR2 antagonists, dose response, cell-based, HEK293, CRE-luciferase reporter, cherry pick, set 2 (AID 743343); assay type: functional;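 note: transfected cells were stimulated with diluted bursicon conditioned medium after compound addition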
[15] = MC4R antagonists, dose response, counter-screen for LGR2 antagonist project, cell-based, plate reader, cherry pick (AID 743444); assay type: functional;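 note: transfected HEK 293 cells stimulated with alpha-MSH peptide; potency of inhibitors of the alpha-MSH evoked signal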
[16] = target: T4, Small ubiquitin-related modifier 1 (Homo sapiens, UniProt P63165); experiment: inhibitors of SUMO1 peptide binding, dose response, biochemical, fluorescence polarization, uHTS hits (AID 624382); assay type: functional; conditions: read-out: IC50_Mean
[17] = target: T4, Small ubiquitin-related modifier 1; experiment: inhibitors of SUMO1 partner interactions, dose response, biochemical, FRET (AID 624383); assay type: functional; conditions: read-out: IC50_Mean
[18] = Vero E6 cell cytotoxicity, dose response, cytotoxicity control for non-replicating M. tuberculosis project, secondary assay (AID 492998); assay type: functional, VeroE6; conditions: Vero C1008
cells [19] = assay type: functional
[20] = AlphaScreen signal interference compounds, dose response, artefact control for ARNT-TACC3 interaction inhibitor project, biochemical, luminescence, cherry-pick (AID 651705); assay type: functional;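 note: AlphaScreen bead proximity signal that flags compounds interfering with the detection technology; potency reflects signal decrease which marks the compound as an assay artifact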
[21] = target: T5, Methionyl-tRNA synthetase, putative (Trypanosoma brucei brucei, UniProt Q38C91); assay type: functional, Trypanosoma brucei brucei strain 927/4 GUTat10.1;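 note: Read-out by fluorescence polarization, run as a confirmatory high-throughput counterscreen; potency of MetRS inhibitors measured by reduced AMP formation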
T5 sequence (Q38C91 whole entry): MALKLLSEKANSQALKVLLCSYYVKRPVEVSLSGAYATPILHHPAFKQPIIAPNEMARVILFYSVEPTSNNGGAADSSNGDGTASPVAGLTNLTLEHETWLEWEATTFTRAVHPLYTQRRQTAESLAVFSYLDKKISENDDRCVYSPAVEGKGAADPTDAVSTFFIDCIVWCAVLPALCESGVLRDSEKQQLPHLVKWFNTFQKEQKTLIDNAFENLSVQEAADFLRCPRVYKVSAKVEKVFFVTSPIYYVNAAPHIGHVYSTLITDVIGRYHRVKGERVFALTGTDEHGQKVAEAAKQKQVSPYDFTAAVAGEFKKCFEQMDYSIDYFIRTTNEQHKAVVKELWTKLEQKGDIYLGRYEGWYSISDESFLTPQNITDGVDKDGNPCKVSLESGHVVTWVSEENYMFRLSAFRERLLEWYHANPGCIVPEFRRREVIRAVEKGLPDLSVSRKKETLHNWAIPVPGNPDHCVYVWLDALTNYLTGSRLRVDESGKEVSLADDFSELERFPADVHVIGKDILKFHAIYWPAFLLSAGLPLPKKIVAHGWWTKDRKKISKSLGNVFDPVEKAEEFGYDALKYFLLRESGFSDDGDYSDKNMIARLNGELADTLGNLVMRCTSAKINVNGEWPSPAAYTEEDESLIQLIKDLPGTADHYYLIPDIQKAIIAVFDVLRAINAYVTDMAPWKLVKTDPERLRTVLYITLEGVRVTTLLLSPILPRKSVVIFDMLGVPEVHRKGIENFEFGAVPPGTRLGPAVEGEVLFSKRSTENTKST

[22] = Counterscreen for inhibitors of Trypanosoma brucei methionyl tRNA synthetase (MetRS): Luminescence-based cell-based high throughput dose response assay to identify compounds that are cytotoxic to Jurkat human T lymphocyte cells.; assay type: functional
Galanin receptor type 3 = target: T6, Galanin receptor type 3 (Homo sapiens, UniProt O60755); experiment: Fluorescence-based cell-based primary high throughput dose response assay to identify antagonists of the Galanin Receptor 3 (GalR3).; assay type: functional
T6 sequence (O60755 whole entry): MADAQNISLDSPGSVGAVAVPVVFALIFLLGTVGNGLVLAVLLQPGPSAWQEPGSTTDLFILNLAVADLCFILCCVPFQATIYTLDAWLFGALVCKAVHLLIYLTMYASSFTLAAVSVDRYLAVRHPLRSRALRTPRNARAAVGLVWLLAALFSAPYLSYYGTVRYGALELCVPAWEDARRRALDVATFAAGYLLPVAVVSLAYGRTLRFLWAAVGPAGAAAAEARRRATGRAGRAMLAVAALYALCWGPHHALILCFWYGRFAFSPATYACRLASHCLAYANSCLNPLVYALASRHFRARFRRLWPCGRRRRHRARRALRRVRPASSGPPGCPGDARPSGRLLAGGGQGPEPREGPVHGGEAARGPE

cells [23] = assay type: functional, cell-based; conditions: HEK-CNG

T4 sequence (P63165 whole entry): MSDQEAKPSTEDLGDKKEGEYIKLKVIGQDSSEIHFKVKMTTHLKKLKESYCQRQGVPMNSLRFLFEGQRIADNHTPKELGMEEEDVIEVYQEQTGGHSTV
Intestinal-type alkaline phosphatase (Mus musculus, UniProt P24822), sequence (P24822 whole entry): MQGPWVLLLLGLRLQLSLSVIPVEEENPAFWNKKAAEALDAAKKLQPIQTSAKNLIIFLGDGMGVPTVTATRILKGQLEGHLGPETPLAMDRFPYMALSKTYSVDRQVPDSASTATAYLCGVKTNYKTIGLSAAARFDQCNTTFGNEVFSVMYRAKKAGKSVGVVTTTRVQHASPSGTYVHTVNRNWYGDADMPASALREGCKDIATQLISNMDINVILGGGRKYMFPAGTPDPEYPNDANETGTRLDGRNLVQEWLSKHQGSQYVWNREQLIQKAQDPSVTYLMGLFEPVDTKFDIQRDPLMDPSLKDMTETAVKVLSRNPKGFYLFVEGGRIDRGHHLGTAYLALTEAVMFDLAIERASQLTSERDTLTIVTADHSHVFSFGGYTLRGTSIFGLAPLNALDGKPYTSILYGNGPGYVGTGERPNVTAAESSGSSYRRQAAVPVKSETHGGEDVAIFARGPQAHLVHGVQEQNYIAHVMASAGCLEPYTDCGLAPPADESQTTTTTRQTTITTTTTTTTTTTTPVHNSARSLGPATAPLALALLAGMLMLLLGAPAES
Cytochrome P450 2C19, sequence (P33261 whole entry): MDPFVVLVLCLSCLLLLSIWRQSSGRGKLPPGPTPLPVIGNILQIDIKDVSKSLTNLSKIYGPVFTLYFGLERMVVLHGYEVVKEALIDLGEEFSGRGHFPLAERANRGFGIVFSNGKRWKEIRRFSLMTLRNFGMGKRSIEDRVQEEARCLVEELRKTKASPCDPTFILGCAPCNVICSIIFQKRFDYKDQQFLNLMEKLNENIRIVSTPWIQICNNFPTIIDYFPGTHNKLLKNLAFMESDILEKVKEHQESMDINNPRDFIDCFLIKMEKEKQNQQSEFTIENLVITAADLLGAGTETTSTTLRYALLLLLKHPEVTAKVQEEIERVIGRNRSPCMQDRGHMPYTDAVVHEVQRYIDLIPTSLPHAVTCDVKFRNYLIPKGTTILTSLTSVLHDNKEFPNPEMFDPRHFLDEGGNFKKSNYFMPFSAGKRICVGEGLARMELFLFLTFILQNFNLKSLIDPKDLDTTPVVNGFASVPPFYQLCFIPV
Intestinal-type alkaline phosphatase (Homo sapiens, UniProt P09923), sequence (P09923 whole entry): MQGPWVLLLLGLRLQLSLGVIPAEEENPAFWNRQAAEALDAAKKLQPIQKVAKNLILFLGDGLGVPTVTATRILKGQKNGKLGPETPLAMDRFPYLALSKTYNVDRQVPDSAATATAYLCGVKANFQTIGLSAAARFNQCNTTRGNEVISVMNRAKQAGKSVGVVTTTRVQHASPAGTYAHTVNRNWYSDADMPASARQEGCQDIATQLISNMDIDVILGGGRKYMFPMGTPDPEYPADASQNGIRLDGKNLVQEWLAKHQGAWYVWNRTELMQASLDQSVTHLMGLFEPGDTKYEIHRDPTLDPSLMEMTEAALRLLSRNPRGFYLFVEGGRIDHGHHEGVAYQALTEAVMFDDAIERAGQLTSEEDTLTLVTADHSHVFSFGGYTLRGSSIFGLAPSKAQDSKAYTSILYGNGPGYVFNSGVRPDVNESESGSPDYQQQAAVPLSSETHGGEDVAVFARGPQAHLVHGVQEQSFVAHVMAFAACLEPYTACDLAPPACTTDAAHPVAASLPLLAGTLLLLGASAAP

With `CCCCCCSC1=C(C#N)C(=O)NC2(CCCCC2)S1` the AC50 [1] was > 100 µM (inactive).

In the case of `O=c1[nH]cnc2scc(-c3ccc(-c4ccccc4)cc3)c12`, the EC50 [2] is reported as > 99 µM (inactive) and the EC50 [3] is reported as > 99 µM (inactive).

With `O=C(/C(=C/c1ccc(Cl)cc1)c1nc2ccccc2[nH]1)c1ccccc1` the EC50 [4] was 824 nM (active), the EC50 [5] was 3.64 µM (active) and the EC50 [6] was > 60 µM (not active). For the same molecule, the EC50 [7] was 3.11 µM (active), the AC50 (Cytochrome P450 2C19) was 1.58 µM (inconclusive) and the AC50 (INS1) was 2.98 µM (active). For the same molecule, the AC50 [8] was 7.94 µM (active).

With `COc1cccc(-c2ncc3ccccc3c2CO)c1` the AC50 [1] was 38 µM (active).

In the case of `Cc1ccc(S(=O)(=O)N2CCC(C(=O)Nc3ccc(C(C)C)cc3)CC2)cc1`, the CC50 [9] is reported as 13 µM (active), the IC50 [10] is reported as 7.81 µM (active) and the IC50 [11] is reported as > 100 µM (inactive). The IC50 [12] was > 100 µM (inactive) and the IC50 (cells [13]) was 40.7 µM (active).

For `COc1ccc(-c2cc(C(=O)N3CCOCC3)no2)cc1`, the AC50 [14] was 10.4 µM (active) and the AC50 [15] was 8.26 µM (active).

With `Nc1nccnc1C(=O)OCC(=O)Nc1ccc2[nH]c(O)nc2c1` the IC50 [16] was > 66.6 µM (inactive) and the IC50 [17] was 11.9 µM (active).

In the case of `O=C(Nc1nnc(-c2ccccc2Cl)o1)c1cccnc1`, the CC50 [18] is reported as > 20 µM (active), the IC50 (cells [19]) is reported as 8.68 µM (active) and the AC50 [20] is reported as 91.9 µM (active).

With `COc1ccccc1NS(=O)(=O)c1cc(NC(=O)Nc2ccccc2)ccc1N1CCCCC1` the IC50 [21] was 19.7 µM (inactive) and the IC50 [22] was 83.3 µM (inactive).

With `O=C1NC(=O)N(CCc2ccc(F)cc2)C(=O)/C1=C/NNC(=O)c1ccncc1` the IC50 (Galanin receptor type 3) was > 29.9 µM (inactive) and the EC50 (cells [23]) was > 29.9 µM (inactive).

— ChEMBL document CHEMBL1201862, “PubChem BioAssay data set” (2004)
